Assays:
winter barley = test: Test D preemergence test; format: in vivo, Hordeum vulgare
In short: (§1)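 Test chemicals, in a non-phytotoxic solvent blend with surfactant, were applied preemergence to planted seeds; where no result was obtained, a dash is shown.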

eastern black nightshade = test: Test G preemergence test; format: in vivo, Solanum ptycanthum; details: scale 0 to 100
lambsquarters = test: Test G preemergence test; format: in vivo, Chenopodium album; details: scale 0 to 100
millet = test: Test G preemergence test; format: in vivo, Panicum miliaceum; details: scale 0 to 100
blackgrass = test: Test D preemergence test; format: in vivo, Alopecurus myosuroides; details: scale 0 to 100
In short: as §1

goosegrass = test: Test G preemergence test; format: in vivo, Eleusine indica; details: scale 0 to 100
spring wheat = test: Test D preemergence test; format: in vivo, Triticum aestivum; details: scale 0 to 100
In short: as §1

winter wheat = test: Test D preemergence test; format: in vivo, Triticum aestivum; details: scale 0 to 100
In short: as §1

sorghum = test: Test G preemergence test; format: in vivo, Sorghum vulgare; details: scale 0 to 100
wild oat = test: Test D preemergence test; format: in vivo, Avena fatua; details: scale 0 to 100
In short: as §1

tall waterhemp = test: Test G preemergence test; format: in vivo, Amaranthus tuberculatos; details: scale 0 to 100
green foxtail = test: Test D preemergence test; format: in vivo, Setaria viridis; details: scale 0 to 100
In short: as §1

yellow nutsedge = test: Test G preemergence test; format: in vivo, Cyperus esculentus; details: scale 0 to 100
soybean = test: Test G preemergence test; format: in vivo, Glycine max; details: scale 0 to 100
barnyardgrass [1] = test: Test G preemergence test; format: in vivo, Echinochloa crus-galli; details: scale 0 to 100
Italian ryegrass = test: Test D preemergence test; format: in vivo, Lolium multiflorum; details: scale 0 to 100
In short: as §1

corn = test: Test G preemergence test; format: in vivo, Zea mays; details: scale 0 to 100
cotton = test: Test G preemergence test; format: in vivo, Gossypium hirsutum; details: scale 0 to 100
itchgrass = test: Test G preemergence test; format: in vivo, Rottboellia cochinchinensis; details: scale 0 to 100
littleseed canarygrass = test: Test D preemergence test; format: in vivo, Phalaris minor; details: scale 0 to 100
In short: as §1

giant foxtail = test: Test G preemergence test; format: in vivo, Setaria faberii; details: scale 0 to 100
field sandbur = test: Test G preemergence test; format: in vivo, Cenchrus incertus; details: scale 0 to 100
barnyardgrass [2] = test: Test B flooded paddy test; format: in vivo, Echinochloa crus-galli; details: Flood, 250 g ai/ha, 13 to 15 days; scale 0 to 100, 0 no effect, 100 complete control
In short: (§2)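 Greenhouse pots flooded to 3 cm above soil at time of treatment received compound via the water, which stayed at that level.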

annual bluegrass = test: Test D preemergence test; format: in vivo, Poa annua; details: scale 0 to 100
In short: as §1

duck salad = test: Test B flooded paddy test; format: in vivo, Heteranthera limosa; details: Flood, 250 g ai/ha, 13 to 15 days; scale 0 to 100, 0 no effect, 100 complete control
In short: as §2

Cn1nc(C(F)(F)F)c(CS(=O)(=O)c2ccc(Cl)c[n+]2[O-])c1OC(F)F [Compound 7]
Plant response rating, Barley (winter barley; Preemergence, 62 g ai/ha, scale 0 to 100): 0 | Plant response rating, Barley (winter barley; Preemergence, 125 g ai/ha, scale 0 to 100): 0 | Plant response rating, Barley (winter barley; Preemergence, 31 g ai/ha, scale 0 to 100): 0 | Plant response rating, Barley (winter barley; preemergence, 250 g ai/ha, scale 0 (no effect) to 100 (complete control)): 0 | Plant response rating, Nightshade (eastern black nightshade; 31 g ai/ha): 0 | Plant response rating, Nightshade (eastern black nightshade; 62 g ai/ha): 0 | Plant response rating, Nightshade (eastern black nightshade; 125 g ai/ha): 0 | Plant response rating, Nightshade (eastern black nightshade; 250 g ai/ha): 0 | Plant response rating, Lambsquarters (lambsquarters; 31 g ai/ha): 0 | Plant response rating, Lambsquarters (lambsquarters; 62 g ai/ha): 0 | Plant response rating, Lambsquarters (lambsquarters; 125 g ai/ha): 0 | Plant response rating, Lambsquarters (lambsquarters; 250 g ai/ha): 15 | Plant response rating, Millet (millet; 31 g ai/ha): 0 | Plant response rating, Millet (millet; 62 g ai/ha): 55 | Plant response rating, Millet (millet; 125 g ai/ha): 85 | Plant response rating, Millet (millet; 250 g ai/ha): 100 | Plant response rating, Blackgrass (blackgrass; 31 g ai/ha): 0 | Plant response rating, Blackgrass (blackgrass; 62 g ai/ha): 0 | Plant response rating, Blackgrass (blackgrass; 125 g ai/ha): 0 | Plant response rating, Blackgrass (blackgrass; 250 g ai/ha): 80 | Plant response rating, Goosegrass (goosegrass; 31 g ai/ha): 50 | Plant response rating, Goosegrass (goosegrass; 62 g ai/ha): 90 | Plant response rating, Goosegrass (goosegrass; 125 g ai/ha): 100 | Plant response rating, Goosegrass (goosegrass; 250 g ai/ha): 100 | Plant response rating, Wheat, Spring (spring wheat; 31 g ai/ha): 0 | Plant response rating, Wheat, Spring (spring wheat; 62 g ai/ha): 0 | Plant response rating, Wheat, Spring (spring wheat; 125 g ai/ha): 0 | Plant response rating, Wheat, Spring (spring wheat; 250 g ai/ha): 0 | Plant response rating, Wheat, Winter (winter wheat; 31 g ai/ha): 0 | Plant response rating, Wheat, Winter (winter wheat; 62 g ai/ha): 0 | Plant response rating, Wheat, Winter (winter wheat; 125 g ai/ha): 0 | Plant response rating, Wheat, Winter (winter wheat; 250 g ai/ha): 0 | Plant response rating, Sorghum (sorghum; 31 g ai/ha): 0 | Plant response rating, Sorghum (sorghum; 62 g ai/ha): 0 | Plant response rating, Sorghum (sorghum; 125 g ai/ha): 0 | Plant response rating, Sorghum (sorghum; 250 g ai/ha): 20 | Plant response rating, Oat, Wild (wild oat; 31 g ai/ha): 0 | Plant response rating, Oat, Wild (wild oat; 62 g ai/ha): 0 | Plant response rating, Oat, Wild (wild oat; 125 g ai/ha): 0 | Plant response rating, Oat, Wild (wild oat; 250 g ai/ha): 0 | Plant response rating, Waterhemp (tall waterhemp; 31 g ai/ha): 15 | Plant response rating, Waterhemp (tall waterhemp; 62 g ai/ha): 60 | Plant response rating, Waterhemp (tall waterhemp; 125 g ai/ha): 100 | Plant response rating, Waterhemp (tall waterhemp; 250 g ai/ha): 100 | Plant response rating, Foxtail, Green (green foxtail; 31 g ai/ha): 0 | Plant response rating, Foxtail, Green (green foxtail; 62 g ai/ha): 20 | Plant response rating, Foxtail, Green (green foxtail; 125 g ai/ha): 20 | Plant response rating, Foxtail, Green (green foxtail; 250 g ai/ha): 55 | Plant response rating, Nutsedge, Yellow (yellow nutsedge; 31 g ai/ha): 0 | Plant response rating, Nutsedge, Yellow (yellow nutsedge; 62 g ai/ha): 0 | Plant response rating, Nutsedge, Yellow (yellow nutsedge; 125 g ai/ha): 0 | Plant response rating, Nutsedge, Yellow (yellow nutsedge; 250 g ai/ha): 0 | Plant response rating, Soybean (soybean; 31 g ai/ha): 0 | Plant response rating, Soybean (soybean; 62 g ai/ha): 0 | Plant response rating, Soybean (soybean; 125 g ai/ha): 0 | Plant response rating, Soybean (soybean; 250 g ai/ha): 0 | Plant response rating, Barnyardgrass (barnyardgrass [1]; 31 g ai/ha): 0 | Plant response rating, Barnyardgrass (barnyardgrass [1]; 62 g ai/ha): 15 | Plant response rating, Barnyardgrass (barnyardgrass [1]; 125 g ai/ha): 60 | Plant response rating, Barnyardgrass (barnyardgrass [1]; 250 g ai/ha): 100 | Plant response rating, Ryegrass, Italian (Italian ryegrass; 31 g ai/ha): 0 | Plant response rating, Ryegrass, Italian (Italian ryegrass; 62 g ai/ha): 0 | Plant response rating, Ryegrass, Italian (Italian ryegrass; 125 g ai/ha): 0 | Plant response rating, Ryegrass, Italian (Italian ryegrass; 250 g ai/ha): 20 | Plant response rating, Corn (corn; 31 g ai/ha): 0 | Plant response rating, Corn (corn; 62 g ai/ha): 0 | Plant response rating, Corn (corn; 125 g ai/ha): 0 | Plant response rating, Corn (corn; 250 g ai/ha): 0 | Plant response rating, Cotton (cotton; 31 g ai/ha): 0 | Plant response rating, Cotton (cotton; 62 g ai/ha): 0 | Plant response rating, Cotton (cotton; 125 g ai/ha): 0 | Plant response rating, Cotton (cotton; 250 g ai/ha): 0 | Plant response rating, Itchgrass (itchgrass; 31 g ai/ha): 0 | Plant response rating, Itchgrass (itchgrass; 62 g ai/ha): 0 | Plant response rating, Itchgrass (itchgrass; 125 g ai/ha): 25 | Plant response rating, Itchgrass (itchgrass; 250 g ai/ha): 25 | Plant response rating, Canarygrass (littleseed canarygrass; 31 g ai/ha): 0 | Plant response rating, Canarygrass (littleseed canarygrass; 62 g ai/ha): 0 | Plant response rating, Canarygrass (littleseed canarygrass; 125 g ai/ha): 20 | Plant response rating, Canarygrass (littleseed canarygrass; 250 g ai/ha): 100 | Plant response rating, Foxtail, Giant (giant foxtail; 31 g ai/ha): 0 | Plant response rating, Foxtail, Giant (giant foxtail; 62 g ai/ha): 20 | Plant response rating, Foxtail, Giant (giant foxtail; 125 g ai/ha): 25 | Plant response rating, Foxtail, Giant (giant foxtail; 250 g ai/ha): 55 | Plant response rating, Sandbur (field sandbur; 31 g ai/ha): 0 | Plant response rating, Sandbur (field sandbur; 62 g ai/ha): 0 | Plant response rating, Sandbur (field sandbur; 125 g ai/ha): 0 | Plant response rating, Sandbur (field sandbur; 250 g ai/ha): 75 | Plant response rating, Barnyardgrass (barnyardgrass [2]): 80 | Plant response rating, Bluegrass (annual bluegrass; 31 g ai/ha): 0 | Plant response rating, Bluegrass (annual bluegrass; 62 g ai/ha): 0 | Plant response rating, Bluegrass (annual bluegrass; 125 g ai/ha): 65 | Plant response rating, Bluegrass (annual bluegrass; 250 g ai/ha): 95 | Plant response rating, Ducksalad (duck salad): 90

From patent US20100298141A1, “SUBSTITUTED PYRIDINE N-OXIDE HERBICIDES” (E. I. DU PONT DE NEMOURS AND COMPANY, priority 2007, published 2010)
